Test results published in patent US20030191088A1, “Novel therapeutic agents interfering in neutrophil migration” (priority 1998, published 2003).

What was measured:
pneumococcal meningitis = pneumococcal meningitis model in rabbits, intravenous GXM; assay type: in vivo
healthy rabbits = assay: Animal toxicity of intravenous GXM in healthy rabbits; assay type: in vivo; settings: intravenous administration, doses ranging from 0.5 to 50 mg
Description: In experiments, it was investigated whether GXM is toxic in healthy animals.

[1] = molecular target: CD18 (β subunit of LFA-1) (Homo sapiens, UniProt P05107); settings: cited from earlier work
neutrophil L-selectin = settings: cited from earlier work
[2] = purified form; cited from earlier work
[3] = test system: neutrophil migration (chemotaxis) towards IL-8; settings: in vitro, GXM added directly to the leukocytes; cited from earlier work
neutrophils = settings: cited from earlier work
[4] = pneumococcal meningitis rabbit model, i.v. administration
[5] = rabbits, intravenous administration, in comparison to control rabbits

Sequence of CD18 (β subunit of LFA-1) (P05107 23-769): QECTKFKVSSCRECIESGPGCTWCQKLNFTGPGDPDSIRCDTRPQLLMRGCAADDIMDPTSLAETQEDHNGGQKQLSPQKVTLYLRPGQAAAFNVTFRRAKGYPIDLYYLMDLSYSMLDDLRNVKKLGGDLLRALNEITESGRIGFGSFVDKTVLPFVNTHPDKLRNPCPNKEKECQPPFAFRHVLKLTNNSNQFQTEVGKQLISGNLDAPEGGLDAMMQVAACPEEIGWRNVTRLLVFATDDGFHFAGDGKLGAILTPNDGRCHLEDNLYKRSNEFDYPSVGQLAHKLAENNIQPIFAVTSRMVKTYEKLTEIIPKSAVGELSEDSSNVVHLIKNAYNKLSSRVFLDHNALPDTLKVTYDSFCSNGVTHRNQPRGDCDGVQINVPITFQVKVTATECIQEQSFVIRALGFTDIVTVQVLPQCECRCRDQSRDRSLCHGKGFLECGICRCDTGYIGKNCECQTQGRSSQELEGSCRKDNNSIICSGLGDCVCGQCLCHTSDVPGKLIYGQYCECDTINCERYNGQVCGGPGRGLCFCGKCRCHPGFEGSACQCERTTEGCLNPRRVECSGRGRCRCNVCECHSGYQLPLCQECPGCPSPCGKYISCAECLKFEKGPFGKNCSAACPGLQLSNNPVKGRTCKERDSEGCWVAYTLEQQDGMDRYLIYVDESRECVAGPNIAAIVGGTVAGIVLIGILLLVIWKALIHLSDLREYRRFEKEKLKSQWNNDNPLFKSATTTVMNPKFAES

Substance: glucuronoxylomannan [GXM]
- toxicity and tolerability in the pneumococcal meningitis rabbit model (pneumococcal meningitis; i.v. administration): non-toxic and well tolerated
- GXM in CSF (pneumococcal meningitis; [4]): detectable
- brain toxicity (pneumococcal meningitis; [4]): No demonstrable brain toxicity
- TNF-α levels in the CSF (pneumococcal meningitis; [5]): reduces TNF-α levels in the CSF
- entry of leukocytes (PMN) into the CSF and brain (pneumococcal meningitis; [5]): delays entry of leukocytes (PMN) into the CSF and brain
- protection of the brain against damage (pneumococcal meningitis; [5]): protects the brains of these rabbits against damage
- tolerability in healthy rabbits (healthy rabbits): tolerated
- binding to CD18 [1]: can bind to CD18
- shedding of neutrophil L-selectin (neutrophil L-selectin): can induce shedding of neutrophil L-selectin
- immunogenicity [2]: poorly immunogenic
- interference with neutrophil migration (chemotaxis) towards IL-8 [3]: interferes with neutrophil migration (chemotaxis) towards IL-8
- attraction of neutrophils (neutrophils): attract neutrophils itself
